Experimental data as given in paper PMC12584665, “In vitro and in vivo efficacy of vancomycin against Elizabethkingia species and the impact of increased vancomycin MICs” (Microbiology Spectrum, 2025).
Values after ≈ are worked out from the molar mass of the structure shown. Read-outs that look alike come from different tables or passages of the source.

Tests used:
[1] = test system: Elizabethkingia anophelis; assay: Etest MIC; format: cell-based
Text: (§1) Eighteen E. anophelis clinical isolates from the nationwide surveillance program (Taiwan Surveillance of Antimicrobial Resistance) were well characterized in our previous study ([7]) and were selected for susceptibility testing and minimum bactericidal concentration (MBC) assays. Among them, five isolates with different clonality (underlined strains in Fig. S1) were selected for the time-kill assays and in vivo experiments.
(§2) Broth microdilution, disc diffusion, Etest, and agar dilution assays were conducted following CLSI guidelines to determine vancomycin MICs ([8]). […] Criteria for Staphylococcus spp. were not adopted due to the lack of a zone diameter breakpoint. MBCs were determined following CLSI guidelines ([8]).

[2] = test system: Elizabethkingia anophelis; assay: Agar dilution (AD) MIC; format: cell-based
Text: as §1, §2

[3] = test system: Elizabethkingia anophelis; assay: Murine neutropenic thigh infection model; format: in vivo, C57BL/6J mice
Protocol: In vivo efficacy was assessed by wax moth (Galleria mellonella), murine pneumonia, and murine thigh infection models following the protocols of our previous study ([2]). The Animal Ethics Committee of Taiwan’s National Health Research Institutes approved the murine pneumonia and thigh infection models.
For the thigh infection model, seven-week-old C57BL/6J mice were rendered neutropenic by intraperitoneal injections of cyclophosphamide (Cytoxan; Bristol-Myers Squibb, Princeton, NJ, USA) 4 days (150 mg/kg) and 1 day (100 mg/kg) before bacterial inoculation. A 30 µL aliquot containing the E. anophelis (10^7 cfu) was injected into each of the two rear thighs. Vancomycin (25 mg/kg or 100 mg/kg, subcutaneous) or teicoplanin (50 mg/kg, intraperitoneal) was administered 2 h and 14 h after inoculation. Mice were sacrificed 24 h post-inoculation, and homogenized thigh tissue was plated in serial 10-fold dilutions on brain-heart infusion agar to determine bacterial counts. Each mouse, not each thigh, was considered an individual data point.

[4] = test system: Acinetobacter baumannii (LAC-4); assay: Murine pneumonia model (model validation); format: in vivo, C57BL/6J mice; conditions: 8 mice per group
Protocol: For the pneumonia model, a bacterial suspension was mixed with 5% mucin from porcine stomach (type 3; Sigma-Aldrich, Saint Louis, USA). Seven-week-old C57BL/6J mice were anesthetized with isoflurane for 10 min. For each strain, the inoculum corresponded to the lowest dose that caused >80% mortality in preliminary testing. This inoculum (10⁶–10⁸ cfu, depending on strain) was delivered intratracheally to induce pneumonia. Two hours thereafter, mice received either high or human-equivalent doses of subcutaneous vancomycin (100 mg/kg or 25 mg/kg, respectively) or intraperitoneal teicoplanin (50 mg/kg) ([17]) twice daily for 3 days. Each group contained eight mice, and survival was monitored for 3 days.

[5] = test system: E. bruuniana; assay: Broth microdilution MIC of laboratory-induced mutants; format: cell-based
Protocol: (§3) E. anophelis and non-anophelis species with baseline vancomycin MICs of 16–32 mg/L (Table 2) were well characterized in our previous study ([7]) and were included in the induction study. The induction of mutants with elevated vancomycin MICs was modified from a previous study ([18]). Briefly, 10^9 cfu of wild-type E. anophelis (2008S01-229) was plated on brain heart infusion agar (Becton Dickinson, Franklin Lakes, NJ, USA) with twofold multiples of vancomycin (32 –256 mg/L). Isolates from viable colonies were subjected to broth microdilution. Genomic comparison between the parental strain (2008S01-229) and elevated-MIC mutants was performed to identify the mutated gene conferring increased vancomycin MIC. To determine whether similar genetic changes occurred in other Elizabethkingia species, non-anophelis isolates were subjected to the same induction protocol. The corresponding target genes were then analyzed by Sanger sequencing to assess the presence of analogous mutations. The target gene related to elevated vancomycin MICs was also validated via scarless gene editing.

[6] = test system: E. ursingii; assay: as above; format: cell-based
Protocol: as §3

[7] = test system: E. miricola; assay: as above; format: cell-based
Protocol: as §3

[8] = test system: E. meningoseptica; assay: as above; format: cell-based; conditions: Elizabethkingia meningoseptica
Protocol: as §3

[9] = test system: Elizabethkingia anophelis; assay: Time-kill assay; format: cell-based; conditions: triplicate; for growth in time-kill assay: five clinical isolates, MH broth, ~5 x 10^5 CFU/mL, 37°C
Protocol: Time-kill assays were performed as previously described with modifications ([10]). Each 250 mL flask containing 30 mL MH broth (Becton Dickinson, Franklin Lakes, NJ, USA) was inoculated to achieve an initial bacterial density of ~5 × 10⁵ CFU/mL. Cultures were incubated at 37°C with shaking at 200 rpm. Vancomycin or teicoplanin (Sigma-Aldrich, Saint Louis, MO, USA) was added at final concentrations of 4 or 16 mg/L. At designated time points, 100 µL of samples was removed, serially diluted in sterile saline, and plated on MH agar for CFU enumeration after overnight incubation at 37°C. No washing steps were performed prior to plating; given the culture volume and dilution scheme, antibiotic carryover was expected to be negligible. All experiments were performed in triplicate.

[10] = E. anophelis clinical isolate 2008N05-106
[11] = E. anophelis clinical isolate 2008S01-229
[12] = E. anophelis clinical isolate 2014C06-157
[13] = E. anophelis clinical isolate 2016N17-576
[14] = E. anophelis clinical isolate 2018C04-213
[15] = E. anophelis clinical isolate 2018C04-224
[16] = E. anophelis clinical isolate 2018C07-210
[17] = E. anophelis clinical isolate 2018C07-234
[18] = E. anophelis clinical isolate 2018C08-127
[19] = E. anophelis clinical isolate 2018E03-151
[20] = E. anophelis clinical isolate 2018E04-135
[21] = E. anophelis clinical isolate 2018N16-057
[22] = E. anophelis clinical isolate 2018N17-036
[23] = E. anophelis clinical isolate 2018N17-073
[24] = E. anophelis clinical isolate 2018N17-153
[25] = E. anophelis clinical isolate 2018N21-226
[26] = E. anophelis clinical isolate 2018S09-023
[27] = E. anophelis clinical isolate 2018S11-172

`CN[C@H](CC(C)C)C(=O)N[C@H]1C(=O)N[C@@H](CC(N)=O)C(=O)N[C@H]2C(=O)N[C@H]3C(=O)N[C@H](C(=O)N[C@H](C(=O)O)c4cc(O)cc(O)c4-c4cc3ccc4O)[C@H](O)c3ccc(c(Cl)c3)Oc3cc2cc(c3O[C@@H]2O[C@H](CO)[C@@H](O)[C@H](O)[C@H]2O[C@H]2C[C@](C)(N)[C@H](O)[C@H](C)O2)Oc2ccc(cc2Cl)[C@H]1O` [Vancomycin] was tested, and the MIC [1, 10] was 24 µg/mL (≈ 16.6 µM), the MIC [1, 11] was 16 µg/mL (≈ 11 µM) and the MIC [1, 12] was 16 µg/mL (≈ 11 µM). It also gave an MIC [1, 13] of 16 µg/mL (≈ 11 µM), an MIC [1, 14] of 16 µg/mL (≈ 11 µM) and an MIC [1, 15] of 16 µg/mL (≈ 11 µM). It also gave an MIC [1, 16] of 16 µg/mL (≈ 11 µM), an MIC [1, 17] of 16 µg/mL (≈ 11 µM) and an MIC [1, 18] of 16 µg/mL (≈ 11 µM). For the same compound, the MIC [1, 19] was 16 µg/mL (≈ 11 µM), the MIC [1, 20] was 16 µg/mL (≈ 11 µM) and the MIC [1, 21] was 16 µg/mL (≈ 11 µM). It also gave an MIC [1, 22] of 16 µg/mL (≈ 11 µM), an MIC [1, 23] of 16 µg/mL (≈ 11 µM) and an MIC [1, 24] of 16 µg/mL (≈ 11 µM). For the same compound, the MIC [1, 25] was 24 µg/mL (≈ 16.6 µM), the MIC [1, 26] was 16 µg/mL (≈ 11 µM) and the MIC [1, 27] was 32 µg/mL (≈ 22.1 µM). For the same compound, the MIC [2, 10] was 16 µg/mL (≈ 11 µM), the MIC [2, 11] was 16 µg/mL (≈ 11 µM) and the MIC [2, 12] was 16 µg/mL (≈ 11 µM). It also gave an MIC [2, 13] of 16 µg/mL (≈ 11 µM), an MIC [2, 14] of 16 µg/mL (≈ 11 µM) and an MIC [2, 15] of 16 µg/mL (≈ 11 µM). For the same compound, the MIC [2, 16] was 16 µg/mL (≈ 11 µM), the MIC [2, 17] was 16 µg/mL (≈ 11 µM) and the MIC [2, 18] was 16 µg/mL (≈ 11 µM). For the same compound, the MIC [2, 19] was 16 µg/mL (≈ 11 µM), the MIC [2, 20] was 16 µg/mL (≈ 11 µM) and the MIC [2, 21] was 16 µg/mL (≈ 11 µM). For the same compound, the MIC [2, 22] was 16 µg/mL (≈ 11 µM), the MIC [2, 23] was 16 µg/mL (≈ 11 µM) and the MIC [2, 24] was 16 µg/mL (≈ 11 µM). For the same compound, the MIC [2, 25] was 16 µg/mL (≈ 11 µM), the MIC [2, 26] was 16 µg/mL (≈ 11 µM) and the MIC [2, 27] was 32 µg/mL (≈ 22.1 µM). For the same compound, the “bacterial loads in thigh” value ([3]; 25 mg/kg subcutaneous 2 h and 14 h after inoculation, neutropenic mice, 24 h, all clinical strains, 4 mice per group) was “modestly reduced the bacterial loads”, the “bacterial load in thigh” value ([3]; 100 mg/kg subcutaneous 2 h and 14 h after inoculation, neutropenic mice, 24 h, compared with 25 mg/kg) was “greater reduction of bacterial load” and the “reduction of bacterial load” value ([3]; 100 mg/kg twice daily, infection by 2008S01-229-VAN-R compared to 2008S01-229) was “hampered”. The “survival of A. baumannii-infected mice” value ([4]; 100 mg/kg subcutaneous twice daily) was “did not improve the survival”, the “activity in A. baumannii pneumonia model” value ([4]; 25 or 100 mg/kg subcutaneous twice daily, A. baumannii LAC-4) was “Lack of vancomycin (VAN) activity” and the MIC [5] was 256 µg/mL. For the same compound, the MIC ([5]; wild-type E. bruuniana parent strain, read-out: Parent strain MIC) was 16 µg/mL, the MIC [6] was 256 µg/mL and the MIC ([6]; wild-type E. ursingii parent strain, read-out: Parent strain MIC) was 32 µg/mL. For the same compound, the MIC ([6]; {}) was 256 µg/mL, the MIC [7] was 512 µg/mL and the MIC ([7]; wild-type E. miricola parent strain, read-out: Parent strain MIC) was 32 µg/mL. The MIC ([8]; induced E. meningoseptica mutants, pbp4 827DelA, Frameshift, 2 isolates, one value each) was 64 µg/mL, the MIC ([8]; wild-type E. meningoseptica parent strain, read-out: Parent strain MIC) was 16 µg/mL and the “growth in time-kill assay” value ([9]; 4 mg/L) was “did not inhibit the growth”. For the same compound, the “growth in time-kill assay” value ([9]; 16 mg/L) was “Growth was inhibited at a higher level (16 mg/L) at 6 h but increased thereafter” and the time-kill assay ([9]; 4 or 16 mg/L, mutant 2008S01-229-VAN-R) was “no effect”.
